Reference: patent publication US5387709A, “Substituted sulfonamides, process of preparation and medicines containing same” (Lipha Lyonnaise Industrielle Pharmaceutique, priority 1990, dated 1995)

What was measured:
platelets of guinea-pig = test: Inhibition of the platelet aggregation induced by U46619 (BORN test), guinea-pig platelets; type: cell-based; conditions: Cavia porcellus, Platelet, read-out: PLATELET AGGREGATION GUINEA-PIG IC 50
Excerpt: (A) Inhibition of the platelet aggregation induced by U46619, a stable analogue of TXA2 (9,11-dideoxy-11α,9α-epoxymethanoprostaglandine F2 α):
The tests determine a concentration of compound which inhibits at 50% (CI50) a liminar aggregation induced by U46619. The activities of the compounds of the present invention are given in example 108.
(§1) The products of examples 1 to 107 have been tested for platelet aggregation on guinea-pig and on the contraction of the aorta in rat as described previously.

rat aorta = test: Inhibition of the U46619 induced rat aorta vasoconstriction; type: cell-based; conditions: Rattus norvegicus, contraction by U46619 (142 nM), rat thoracic aorta, 37° C.; read-out: VASOCONSTRICTION RAT AORTA IC 50
Experimental: (B) Inhibition of the U46619 induced rat aorta vasoconstriction:
male rats weighing about 300 g are put to death by euthanasia; the thoracic aorta is rapidly taken out. A sample of about 1 cm is cut into a spiral, and placed in a vat containing 20 ml of nutrient medium (Krebs-Henseleit) kept a 37° C. and oxygenated (O2 95%, CO2 5%). The contractions are recorded with an isotonic strain gauge. After a rest of 45 mn, supramaximum contractions are provoked by the addition of an analogue of TXA2 (U46619: 142 nM) to the survival medium. A plateau is generally reached after 10 mn of contact, the latter not exceeding 25 mn. A rest of 30 mn and a plurality of rinses take place after each contraction. The products are added 10 mn after U46619 and allowed to rest 15 mn, after which delay the inhibition is measured. The inhibitory concentration 50 (IC) is determined for each compound studied and on a minimum of 3 aortas. The activities of the compounds of the present invention are described in example 108.
as §1

| IC50 (platelets of guinea-pig) | IC50 (rat aorta) | SMILES |
| --- | --- | --- |
| 4000 nM | 600 nM | O=C(O)Cc1ccc(CC2(CNS(=O)(=O)c3ccc(Cl)cc3)CCCCC2)cc1 [Example 87, 4-[[1-[[[(4-Chlorophenyl)sulfonyl]amino]methyl]cyclohexyl]methyl]benzeneacetic acid] |
| > 5000 nM | 1000 nM | C[S+]([O-])c1ccc(S(=O)(=O)NCC2(Cc3ccc(CC(=O)O)cc3)CCCC2)cc1 (centres unmarked) [Example 84, 4-[[1-[[[(4-Methylsulfinylphenyl)sulfonyl]amino]methyl]cyclopentyl]methyl]benzeneacetic acid] |
| > 5000 nM | > 1000 nM | CC(C)(C)c1ccc(S(=O)(=O)NCC2(Cc3ccc(CC(=O)O)cc3)CCCC2)cc1 [Example 61, 4-[[1-[[[[4-(1,1-Dimethylethyl)phenyl]sulfonyl]amino]methyl]cyclopentyl]methyl]benzeneacetic acid] |
| 690 nM |  | O=C(O)Cc1ccc(C[C@@H]2CCC[C@H]2NS(=O)(=O)c2ccc(Cl)cc2)cc1 (relative stereo) [Example 1, Trans-4-[[2-[[(4-chlorophenyl)sulfonyl]amino]cyclopentyl]methyl]-benzeneacetic acid] |
| 3100 nM | 1000 nM | O=C(O)Cc1ccc(CC2(CNS(=O)(=O)c3ccc(Cl)cc3)CCC(=O)CC2)cc1 [Example 91, 4-[[1-[[[(4-Chlorophenyl)sulfonyl]amino]methyl]-4-oxocyclohexyl]methyl]benzeneacetic acid] |
| 5900 nM | > 1000 nM | CCCCCCOc1ccc(S(=O)(=O)NCC2(Cc3ccc(CC(=O)O)cc3)CCCC2)cc1 [Example 97, 4-[[1-[[[(4-Hexyloxyphenyl)sulfonyl]amino]methyl]cyclopentyl]methyl]benzeneacetic acid] |
| 2400 nM | > 1000 nM | CCOC(=O)Cc1ccc(CC2(CNS(=O)(=O)c3ccc(Cl)cc3)CCCC2)cc1 [Example 77, Ethyl 4-[[1-[[[(4-chlorophenyl)sulfonyl]amino]methyl]cyclopentyl]methyl]benzeneacetate] |
| > 5000 nM | > 1000 nM | CN(C)c1cccc2c(S(=O)(=O)NCC3(Cc4ccc(CC(=O)O)cc4)CCCC3)cccc12 [Example 104, 4-[[1-[[[[5-(Dimethylamino)naphthalen-1-yl]sulfonyl]amino]methyl]cyclopentyl]methyl]benzeneacetic acid] |
| 1800 nM | > 1000 nM | CCCCCCc1ccc(S(=O)(=O)NCC2(Cc3ccc(CC(=O)O)cc3)CCCC2)cc1 [Example 94, 4-[[1-[[[(4 -Hexylphenyl)sulfonyl]amino]methyl]cyclopentyl]methyl]benzeneacetic acid] |
| 2600 nM | 130 nM | O=C(O)Cc1ccc(CC2(CNS(=O)(=O)c3ccc(OC(F)(F)F)cc3)CCCC2)cc1 [Example 64, 4-[[1-[[[(4-Trifluoromethoxyphenyl)sulfonyl]amino]methyl]cyclopentyl]methyl]benzeneacetic acid] |
| 600 nM | 60 nM | O=C(O)Cc1ccc(C[C@@H]2CCC[C@@H]2NS(=O)(=O)c2ccc(Cl)cc2)cc1 (relative stereo) [Example 3, Cis-4-[[2-[[(4-chlorophenyl)sulfonyl]amino]cyclopentyl]methyl]benzeneaceticacid] |
| 570 nM | 300 nM | Cc1ccc(S(=O)(=O)NCC2(Cc3ccc(CC(=O)O)cc3)CCCC2)cc1 [Example 24, 4-[[1-[[[(4-methylphenyl)sulfonyl]amino]methyl]cyclopentyl]methyl]benzeneacetic acid] |
| > 5000 nM | > 1000 nM | O=C(Cc1ccc(CC2(CNS(=O)(=O)c3ccc(Cl)cc3)CCCC2)cc1)N1CCOCC1 [Example 74, 4-Chloro-N-[[1-[[4-[2-(morpholin-4-yl)-2-oxoethyl]phenyl]methyl]cyclopentyl]methyl]benzenesulfonamide] |
| 1500 nM | 60 nM | O=C(O)c1ccc(CC2(CNS(=O)(=O)c3ccc(Cl)cc3)CCCC2)cc1 [Example 25, 4-[[1-[[[(4-Chlorophenyl)sulfonyl]amino]methyl]cyclopentyl]methyl]benzoic acid] |
| 2000 nM | 1000 nM | Nc1ccc(S(=O)(=O)NCC2(Cc3ccc(Cc4nnn[nH]4)cc3)CCCC2)cc1 [Example 82, 4-Amino-N-[1-[[[4-[(1H-tetrazol-5-yl)methyl]phenyl]methyl]cyclopentyl]methyl]benzenesulfonamide] |
| 4000 nM | 400 nM | O=C(O)Cc1ccc(CC2(CNS(=O)(=O)c3ccc(Cl)s3)CCCC2)cc1 [Example 68, 4-[[1-[[[(5-Chlorothien-2-yl)sulfonyl]amino]methyl]cyclopentyl]methyl]benzeneacetic acid] |
| > 5000 nM |  | O=S(=O)(NCC1(Cc2ccc(CCO)cc2)CCCC1)c1ccc(OC(F)(F)F)cc1 [Example 45, N-[[1-[[4-(2-Hydroxyethyl)phenyl]methyl]cyclopentyl]methyl]-4-trifluoromethoxybenzenesulfonamide] |
| 3000 nM | 40 nM | O=C(O)Cc1ccc(CC2(CNS(=O)(=O)c3ccc(O)cc3)CCCC2)cc1 [Example 71, 4-[[1-[[[(4-Hydroxyphenyl)sulfonyl]amino]methyl]cyclopentyl]methyl]benzeneacetic acid] |
| > 5000 nM | > 1000 nM | O=C(O)Cc1ccc(CC2(CNS(=O)(=O)c3ccc(C4CCCCC4)cc3)CCCC2)cc1 [Example 99, 4-[[1-[[[(4-Cyclohexylphenyl)sulfonyl]amino]methyl]cyclopentyl]methyl]benzeneacetic acid] |
| > 5000 nM | > 1000 nM | O=C(O)Cc1ccc(CC2(CNS(=O)(=O)c3cccc(Cl)c3)CCCC2)cc1 [Example 52, 4-[[1-[[[(3-Chlorophenyl)sulfonyl]amino]methyl]cyclopentyl]methyl]benzeneacetic acid] |
| 2900 nM | 100 nM | O=C(O)Cc1ccc(CC2(CNS(=O)(=O)c3ccc(C(F)(F)F)cc3)CCCC2)cc1 [Example 55, 4-[[1-[[[(4-Trifluoromethylphenyl)sulfonyl]amino]methyl]cyclopentyl]methyl]benzeneacetic acid] |
| 290 nM | 20 nM | O=C(O)Cc1ccc(CC2(CNS(=O)(=O)c3ccc(Cl)cc3)CCC2)cc1 [Example 27, 4-[[1-[[[(4-chlorophenyl)sulfonyl]amino]methyl]cyclobutyl]methyl]benzeneacetic acid] |
| > 5000 nM | > 1000 nM | O=C(O)Cc1ccc(CC2(CNS(=O)(=O)c3c(F)c(F)c(F)c(F)c3F)CCCC2)cc1 [Example 100, 4-[[1-[[[(Pentafluorophenyl)sulfonyl]amino]methyl]cyclopentyl]methyl]benzeneacetic acid] |
| > 5000 nM |  | O=C(O)Cc1ccc(CC2(CNS(=O)(=O)c3cccc4cccnc34)CCCC2)cc1 [Example 106, 4-[[1-[[[(Quinol-8-yl)sulfonyl]amino]methyl]cyclopentyl]methyl]benzeneacetic acid] |
| 1000 nM |  | O=C(O)Cc1ccc(CC2(CNS(=O)(=O)c3ccc4ccccc4c3)CCCC2)cc1 [Example 102, 4-[[1-[[[(Naphthalen-2-yl)sulfonyl]amino]methyl]cyclopentyl]methyl]benzeneacetic acid] |
| > 5000 nM |  | CS(=O)(=O)c1ccc(S(=O)(=O)NCC2(Cc3ccc(CCO)cc3)CCCC2)cc1 [Example 44, N-[[1-[[4-(2-Hydroxyethyl)phenyl]methyl]cyclopentyl]methyl]-4-methylsulfonylbenzenesulfonamide] |
